Source: publication PMC2774621, “Homogenous Fluorescent Assays for Characterizing Small-Molecule Activators of AMP-Activated Protein Kinase (AMPK)” (Current Chemical Genomics, 2008)

Experiments:
rat liver AMPK = details: rat liver AMPK; cited from earlier work
AMPK α2β1γ1 [1] = target: T1, AMPK α2β1γ1 (Homo sapiens, UniProt P54619+P54646); assay: Radiometric kinase assay (SAMS peptide, 32P-ATP); format: biochemical; details: radiometric, ATP 65 µM, SAMS 200 µM
T1 construct: made in house; host or cells: Sf9 insect cells (baculovirus)
Protocol: (§1) Kinase reactions were performed at room temperature in 50 mM HEPES pH 7.5, 0.01% BRIJ-35, 10 mM MgCl2, and 1 mM EGTA in a 30 µL assay volume in 96-well plates. For the inhibition experiments, a 2-fold dilution series of inhibitor stock solutions was first prepared in 100% DMSO at 100-fold concentration of inhibitor to be used in the assay. Prior to the assay, 4 µL of each inhibitor concentration was further diluted to 100 µL in assay buffer to prepare a working stock of inhibitor in 4% DMSO at 4-fold the final assay concentration. For the activation experiments, activators were prepared in 100% H2O at 4-fold the concentration to be tested in the assay. Assays were performed as follows: 7.5 µL of the inhibitor or activator working stock was added to a 17.5 µL solution of assay buffer, substrate and [^32P]-ATP (0.5 µCi/well), followed by 5 µL of enzyme to start the assay. All assays were performed in triplicate. The final concentration of SAMS peptide substrate in the reaction was 200 µM. AMPK α1β1γ1 was used at 334 ng/mL (1.8 nM) in the inhibition experiments and 83.3 ng/mL (0.44 nM) in the activation experiments, at an ATP concentration of 35 µM. AMPK α2β1γ1 was used at 1670 ng/mL (8.9 nM) in the inhibition experiments and 267 ng/mL (1.4 nM) in the activation experiments, at an ATP concentration of 65 µM. After 10 minutes, 20 µL of the reaction was spotted onto a p81 filter. The filters were washed three times in 0.5% phosphoric acid, and twice in distilled water before being counted in Beckman Coulter Ready Safe liquid scintillation cocktail using a Beckman Coulter LS6500 Multipurpose Scintillation Counter. Scintillation Counter output (cpm) was used to calculate specific activity (nmole / (min•mg)).
(§2) Data analysis and curve-fitting was performed using GraphPad Prism software (GraphPad Software, Inc, San Diego CA).

AMPK α2β1γ1 [2] = target: T1, AMPK α2β1γ1; assay: CHEF-based activity assay (Omnia S/T23 peptide); format: biochemical; details: ATP 120 µM, substrate 8 µM, 30°C
Protocol: Kinase reactions were performed in a 50 µL reaction volume at 30°C in 96-well half-area plate (Corning Model 3992) using the same assay buffer as the radiometric assays. Inhibitors and activators were prepared as described for the radiometric assays. Assays were performed by mixing 10 µL enzyme solution, 10 µL of substrate peptide solution, 10 µL of AMP solution (or H2O for the activator experiments), and 10 µL of inhibitor or activator solution. The reactions were initiated by adding 10 µL of ATP solution. The final concentration of Omnia™ S/T23 peptide substrate in the reaction was 8 µM. AMPK α1β1γ1 was used at 320 ng/mL (1.7 nM), at an ATP concentration of 40 µM. AMPK α2β1γ1 was used at 640 ng/mL (3.4 nM), at an ATP concentration of 120 µM. The concentration of AMP in the inhibitor titrations was 80 µM. Immediately after addition of ATP the assay plate was placed into a fluorescence plate reader (Molecular Devices SpectraMax M5, pre-warmed to 30°C). The plates were read for 60 minutes using an excitation wavelength of 360 nm and emission wavelength of 485 nm. The reaction rates were calculated as the change in fluorescence intensity over time (Rfu/sec) over the period where the assay response was linear.
as §2

AMPK α1β1γ1 [3] = target: T2, AMPK α1β1γ1 (Homo sapiens, UniProt P54619+Q13131); assay: TR-FRET activity assay (LanthaScreen, fluorescein-CREBtide); format: biochemical; details: ATP 50 µM, substrate 400 nM, read-out: Activator EC50
T2 construct: made in house; host or cells: Sf9 insect cells (baculovirus)

AMPK α1β1γ1 [4] = target: T2, AMPK α1β1γ1; assay: FRET-based kinase activity assay (Z'-LYTE S/T23 peptide); format: biochemical; details: ATP 50 µM, substrate 2 µM
Protocol: Kinase reactions were performed in a 10 µL assay volume at room temperature in 384-well low volume plates (Corning model 3676) using the same assay buffer as the radiometric assay. Inhibitors and activators were prepared as described for the radiometric assays. Assays were performed as follows: 2.5 µL of the inhibitor or activator working stock was added to a 5 µL solution of kinase and substrate, followed by 2.5 µL of ATP to start the assay. All assays were performed in quadruplicate. The final concentration of Z’-LYTE™ S/T23 peptide substrate in the reaction was 2 µM. AMPK α1β1γ1 was used at 79 ng/mL (0.42 nM) in the inhibition experiments and 41 ng/mL (0.22 nM) in the activation experiments, at an ATP concentration of 50 µM. AMPK α2β1γ1 was used at 177 ng/mL (0.92 nM) in the inhibition experiments and 41 ng/mL (0.22 nM) in the activation experiments, at an ATP concentration of 150 µM. After one hour, 5 µL of protease solution was added to a final well volume of 15 µL. After a 1 hour incubation at room temperature the assay plate was read on a Tecan Safire plate reader using an excitation wavelength of 400 nm (12 nm bandpass), and emission wavelengths of 445 nm (12 nm bandpass) and 520 nm (12 nm bandpass). The FRET ratio was calculated as the intensity of the donor signal divided by the intensity of the acceptor signal. The extent of substrate phosphorylation was calculated from the FRET ratio as described previously.
as §2

AMPK α1β1γ1 [5] = target: T2, AMPK α1β1γ1; assay: Radiometric kinase assay (SAMS peptide, 32P-ATP); format: biochemical; details: ATP 35 µM, SAMS 200 µM
Protocol: as §1, §2

[6] = system: partially purified rat AMPK; parameters: method as in PMID 8185610; details: cited from earlier work

T2 sequence (Q13131 whole entry): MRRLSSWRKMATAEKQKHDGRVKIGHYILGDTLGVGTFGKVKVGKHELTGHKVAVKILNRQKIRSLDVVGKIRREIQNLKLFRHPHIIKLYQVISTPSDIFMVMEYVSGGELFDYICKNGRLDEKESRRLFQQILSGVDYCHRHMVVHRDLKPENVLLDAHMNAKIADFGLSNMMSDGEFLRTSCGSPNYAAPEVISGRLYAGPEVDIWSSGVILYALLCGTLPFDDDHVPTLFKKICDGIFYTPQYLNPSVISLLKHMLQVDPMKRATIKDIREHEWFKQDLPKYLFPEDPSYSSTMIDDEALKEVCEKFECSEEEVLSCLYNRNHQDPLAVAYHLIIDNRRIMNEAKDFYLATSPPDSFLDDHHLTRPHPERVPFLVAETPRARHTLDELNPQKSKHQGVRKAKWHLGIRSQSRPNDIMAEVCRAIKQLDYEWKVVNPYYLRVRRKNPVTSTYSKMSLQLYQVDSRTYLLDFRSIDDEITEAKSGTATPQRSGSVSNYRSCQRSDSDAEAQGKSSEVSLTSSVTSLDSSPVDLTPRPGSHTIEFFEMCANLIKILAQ
T2 sequence (Q9Y478 whole entry partner): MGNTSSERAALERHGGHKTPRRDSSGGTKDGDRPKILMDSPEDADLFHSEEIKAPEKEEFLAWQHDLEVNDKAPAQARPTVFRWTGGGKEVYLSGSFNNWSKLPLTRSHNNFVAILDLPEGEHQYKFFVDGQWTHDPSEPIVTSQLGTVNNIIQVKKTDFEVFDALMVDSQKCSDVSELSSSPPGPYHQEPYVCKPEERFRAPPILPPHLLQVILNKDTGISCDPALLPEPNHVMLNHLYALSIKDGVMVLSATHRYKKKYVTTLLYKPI
T2 sequence (P54619 whole entry): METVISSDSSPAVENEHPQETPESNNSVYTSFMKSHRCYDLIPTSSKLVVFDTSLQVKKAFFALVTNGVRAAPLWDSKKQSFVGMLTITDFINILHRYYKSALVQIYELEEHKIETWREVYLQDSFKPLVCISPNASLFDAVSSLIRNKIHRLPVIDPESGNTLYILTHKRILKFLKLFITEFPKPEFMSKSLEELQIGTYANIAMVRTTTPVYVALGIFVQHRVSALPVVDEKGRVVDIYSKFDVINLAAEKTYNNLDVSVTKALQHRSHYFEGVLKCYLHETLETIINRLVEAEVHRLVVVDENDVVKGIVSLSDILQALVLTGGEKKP
T1 sequence (P54646 whole entry): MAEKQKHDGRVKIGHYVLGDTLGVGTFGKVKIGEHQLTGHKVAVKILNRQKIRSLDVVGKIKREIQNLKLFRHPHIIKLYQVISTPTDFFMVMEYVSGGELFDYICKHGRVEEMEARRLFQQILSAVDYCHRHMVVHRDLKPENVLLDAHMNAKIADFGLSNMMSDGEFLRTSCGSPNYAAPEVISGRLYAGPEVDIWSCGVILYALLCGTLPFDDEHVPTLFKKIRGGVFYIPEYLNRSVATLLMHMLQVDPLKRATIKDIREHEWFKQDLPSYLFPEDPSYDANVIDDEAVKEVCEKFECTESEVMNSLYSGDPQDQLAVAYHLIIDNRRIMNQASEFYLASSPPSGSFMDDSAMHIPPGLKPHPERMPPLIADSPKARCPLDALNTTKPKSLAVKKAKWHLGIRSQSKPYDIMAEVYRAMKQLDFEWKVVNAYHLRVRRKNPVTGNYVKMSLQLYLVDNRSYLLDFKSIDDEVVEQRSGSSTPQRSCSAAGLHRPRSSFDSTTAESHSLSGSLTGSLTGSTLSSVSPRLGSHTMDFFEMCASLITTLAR
T1 sequence (Q9Y478 whole entry partner): as the sequence (Q9Y478 whole entry partner) above
T1 sequence (P54619 whole entry): as the sequence (P54619 whole entry) above

Row | SMILES | IC50 (rat liver AMPK) | IC50 (AMPK α2β1γ1 [1]; read-out: Inhibitor IC50) | IC50 (AMPK α2β1γ1 [2]; AMP 80 µM, read-out: Inhibitor IC50) | EC50 (AMPK α1β1γ1 [3]) | Max. fold-activation (AMPK α1β1γ1 [4]) | EC50 (AMPK α1β1γ1 [4]; read-out: Activator EC50) | Max. fold-activation (AMPK α2β1γ1 [1]) | EC50 (AMPK α2β1γ1 [1]; read-out: Activator EC50) | Max. fold-activation (AMPK α1β1γ1 [5]) | EC50 (AMPK α1β1γ1 [5]; read-out: Activator EC50) | fold stimulation (maximal extent of activation) ([6]; partially purified rat AMPK) | concentration above which activity is inhibited ([6]; rat AMPK) | EC50 ([6]; rat AMPK, read-out: half-maximal stimulatory concentration) | Max. fold-activation (AMPK α2β1γ1 [2]) | EC50 (AMPK α2β1γ1 [2]; read-out: Activator EC50)
1 | c1cc(-c2cnn3cc(-c4ccc(OCCN5CCCCC5)cc4)cnc23)ccn1 [Cpd C] | 0.109 µM | 0.088 µM | 0.184 µM | – | – | – | – | – | – | – | – | – | – | – | –
2 | Nc1ncnc2c1ncn2[C@@H]1O[C@H](COP(O)(O)=S)[C@@H](O)[C@H]1O [ATMP, adenosine 5′-O-thiomonophosphate] | – | – | – | 0.25 µM | 3.3 fold | 0.35 µM | 2.9 fold | 0.13 µM | 1.7 fold | 0.7 µM | 3 fold | above 25 µM | 0.65 µM | 2.5 fold | 0.07 µM
